Laboratory results reported in article PMC6588697, “Lugdunin amplifies innate immune responses in the skin in synergy with host- and microbiota-derived factors” (Nature Communications, 2019).
Where “and” joins values, the source holds several entries; their conditions need not be identical. Identical values can stand only once.

Assays:
PHKs = experiment: Cytokine release into PHK supernatant (LEGENDplex / ELISA); type: cell-based, human; conditions: 5 h, lugdunin 2 µM or Pam2Cys 100 ng/mL, two technical replicates
Experimental: Fig. 1 Lugdunin sensitizes epithelial cells for innate immune defense. a Primary human keratinocytes (PHKs) were pretreated with S. epidermidis conditioned medium (CM), indicated lugdunin concentrations, or the combination of both for 20 h. Subsequently, cells were infected with S. aureus for 1.5 h followed by cell lysis and determination of colony-forming units (CFUs). Shown is one representative experiment of three independent experiments with six technical replicates ± s.e.m. n.s., not significant. b Dorsal skin of mice was pretreated with S. epidermidis CM, 1.5 µg lugdunin alone or in combination with S. epidermidis CM for 24 h. Subsequently, S. aureus CFUs were determined. Horizontal lines represent the mean of each group ± s.e.m. c PHKs were treated with 2 μM lugdunin or with S. epidermidis CM alone or in combination for 20 h and subsequently expression of indicated antimicrobial peptides (AMPs) (respective protein names in brackets) was analyzed and normalized to actin. Shown is one representative experiment of three independent experiments with two technical replicates ± s.e.m. d PHKs were treated with 2 µM lugdunin or 100 ng/mL Pam2Cys for 5 h and subsequently the concentration of indicated cytokines in the supernatant was analyzed by LEGENDplex^TM (BioLegend). Shown is one representative experiment of three independent experiments with two technical replicates ± s.e.m. e PHKs were treated with increasing concentrations of lugdunin or 100 ng/mL Pam2Cys or Pam3Cys for 5 h and subsequently expression of chemokine (C-X-C motif) ligand 8 (CXCL8) was analyzed and normalized to actin. Shown is one representative experiment of three independent experiments, each with two technical replicates ± s.e.m. f, g Indicated cells were treated with 2 µM lugdunin or 100 ng/mL Pam2Cys as a positive control for 5 h and subsequently the concentration of CXCL8 (f) and interleukin-1α (IL-1α) (g) in the supernatant was analyzed by LEGENDplex^TM (BioLegend) and enzyme-linked immunosorbent assay (ELISA) (R&D Systems). Shown is one representative experiment of three independent experiments with two technical replicates ± s.e.m. Significant differences to control treatments were analyzed by ordinary one-way analysis of variance (ANOVA) followed by Dunnett’s multiple comparisons test (*P < 0.05; **P < 0.01; ***P < 0.001; ****P < 0.0001). n.d. = not detected. Source data are provided as a Source Data file
For cytokine analysis from cell cultures, 10 µL of supernatant was used for cytokine analysis via the LEGENDplex^TM human inflammation panel (BioLegend). For cytokine analysis from mouse skin, 4 mm skin punches were cultured in an airlift system where only the dermis had access to medium for 10 h. Skin punches were cultured in RPMI containing 1% FCS (Biochrom/Merck Millipore), 1% penicillin and streptomycin (Gibco/Life Technologies) and 0.25 µg/mL amphotericin B (CELLnTEC). Ten microliters of a 3-fold dilution of culture supernatant was used for cytokine analysis via the LEGENDplex^TM mouse inflammation panel (BioLegend). Samples were acquired in duplicates using a BD LSRII flow cytometer (BD Biosciences) and LEGENDplex^TM Software (BioLegend).
For IL-1α analysis, 100 µL of cell culture supernatant was analyzed via ELISA (R&D Systems) according to manufacturer’s instruction. For MIP-2 analysis, 100 µL of a 5-fold dilution from skin cultures supernatant was used and analyzed via ELISA (R&D Systems) according to the manufacturer’s instruction. For LL-37 ELISA, ELISA plates (Nunc) were coated overnight at 4 °C with 100 µL of cell culture supernatant or 2-fold dilutions of LL-37 starting from 8 µg/mL. The next day, the plate was washed three times using PBS + 0.5% BSA + 0.05% Triton X-100, followed by incubation with 100 µL primary antibody against hCAP18/LL-37 (HycultBiotech, Cat#HM2071, 1:120 in PBS + 0.5% BSA + 0.05% Triton X-100) at 37 °C for 1 h. […]

S. aureus = S. aureus skin colonization after epicutaneous pretreatment of mouse skin (CFU); type: in vivo, C57BL/6 WT mice; conditions: treatment of mouse skin; text to Fig 1b
Experimental: Fig. 1 Lugdunin sensitizes epithelial cells for innate immune defense. a Primary human keratinocytes (PHKs) were pretreated with S. epidermidis conditioned medium (CM), indicated lugdunin concentrations, or the combination of both for 20 h. Subsequently, cells were infected with S. aureus for 1.5 h followed by cell lysis and determination of colony-forming units (CFUs). Shown is one representative experiment of three independent experiments with six technical replicates ± s.e.m. n.s., not significant. b Dorsal skin of mice was pretreated with S. epidermidis CM, 1.5 µg lugdunin alone or in combination with S. epidermidis CM for 24 h. Subsequently, S. aureus CFUs were determined. Horizontal lines represent the mean of each group ± s.e.m. c PHKs were treated with 2 μM lugdunin or with S. epidermidis CM alone or in combination for 20 h and subsequently expression of indicated antimicrobial peptides (AMPs) (respective protein names in brackets) was analyzed and normalized to actin. Shown is one representative experiment of three independent experiments with two technical replicates ± s.e.m. d PHKs were treated with 2 µM lugdunin or 100 ng/mL Pam2Cys for 5 h and subsequently the concentration of indicated cytokines in the supernatant was analyzed by LEGENDplex^TM (BioLegend). […]

Lugdunin
CXCL8 concentration in supernatant (PHKs; LEGENDplex, Fig 1d): 62.009 and 63.022
CXCL8 concentration in supernatant (PHKs; Fig 1f): 186.026 and 189.663
IFN concentration in supernatant (first line IFN, r44) (PHKs; Fig 1d): 0.000
IFN concentration in supernatant (second line IFN, r45) (PHKs; Fig 1d): 0.000
IL-1 concentration in supernatant (first line IL-1, r43) (PHKs; Fig 1d): 0.000
IL-1 concentration in supernatant (second line IL-1, r47) (PHKs; Fig 1d): 0.000
IL-6 concentration in supernatant (PHKs; Fig 1d): 0.000
IL-10 concentration in supernatant (PHKs; Fig 1d): 0.000
IL-12p70 concentration in supernatant (PHKs; Fig 1d): 0.000
IL-18 concentration in supernatant (PHKs; Fig 1d): 0.000
IL-23 concentration in supernatant (PHKs; Fig 1d): 0.000
IL-33 concentration in supernatant (PHKs; Fig 1d): 0.000
MCP-1 concentration in supernatant (PHKs; Fig 1d): 219.647 and 222.665
TNF concentration in supernatant (PHKs; Fig 1d): 0.000
reduction of colonizing S. aureus (in words) (S. aureus): slight, but not significant, reduction
